target: T1, full-length human PKC-α enzyme (Homo sapiens, UniProt P17252); test: Assessment of PKC-α Inhibitory Activity (MALDI-TOF kinase assay); assay type: biochemical; conditions: full-length human PKC-α 0.12 μg/ml; ATP 45 μM; neurogranin 28-43 peptide 22 μM; 30 minute incubation at 24° C.; MALDI-TOF readout
T1 construct: performed using full-length human PKC-α enzyme (Upstate Biotechnology); purchased Upstate Biotechnology
Description: Measurement of PKC-α enzyme activity is performed using full-length human PKC-α enzyme (Upstate Biotechnology) at a final concentration of 0.12 μg/ml in a kinase assay buffer (0.09 mg/ml bovine serum albumin (BSA), 210 μM ethylenediaminetetraacetic acid (EDTA), 360 μM CaCl2, 1 mM Tris-HCl, pH=7.5, 0.5 mM MgCl2, 0.015 mg/ml phosphatidylserine and 0.015 mg/ml diacylglycerol). The reaction is initiated by addition of adenosine triphosphate (ATP; final concentration 45 μM) and a peptide substrate consisting of amino acids 28-43 (Ala-Ala-Lys-Ile-Gln-Ala-Ser-Phe-Arg-Gly-His-Met-Ala-Arg-Lys-Lys) of neurogranin (Promega; final concentration 22 μM). After a 30 minute incubation at 24° C. the reaction is terminated by adding 5 μL of the reaction mixture into 50 μL of MALDI matrix solution (5 mg/ml α-cyano-4-hydroxycinnamic acid in 50% Acetonitrile/H2O, 0.1% TFA, 5 mM ammonium phosphate). Two microliters of the stopped reaction mixture is transferred onto a MALDI-TOF mass spectrometer target plate.
All spectra are collected on an Applied Biosystems 4700 Proteomics Analyzer MALDI-TOF MS equipped with a Nd:YAG laser (355 nm, 3 ns pulse width, 200 Hz repetition rate) in negative ion reflector mode. The system is operated with 4700 Explorer software, version 3.0. Automated acquisition parameters are adjusted to capture and average only those individual spectra within defined success criteria. Specifically, signal intensities for the substrate peptide are set to a minimum threshold of 3000 counts and a maximum intensity of 65,000 counts. This ensured that neither null spectra nor saturated spectra are averaged into the final readout. Between 1000 and 1500 laser shots are averaged for each sample. Data are collected in triplicate from 3 successive days to capture the maximum variability related to preparation of enzyme reaction, transfer of samples to MALDI target plates, data collection, and data extraction.
The isotope cluster areas for each peptide substrate and product peaks are extracted into a Microsoft Excel worksheet from the 10×10 array of spectral data simultaneously using the automated analysis function provided within the 4700 Explore software. The isotope cluster area is defined by the software algorithm based on the molecular weight and the general elemental composition of the peptides. The percent conversion (% C) of substrate to product is calculated as the cluster area of the product (P) divided by the sum of the cluster areas of the substrate (S) and the product multiplied by 100 as represented by the following equation: […]
For dose-dependent inhibition studies, the inhibition is plotted as a % Maximal Activity (% MA). Equation one is a measure of the ratio of product to substrate then solving for the % C. However, to measure inhibition of the enzyme activity, one must measure the degree to which that activity (% C) is curtailed. Thus the dose-dependant inhibition data is plotted as % MA where the maximal activity is the % C measured in control reactions with no inhibitor as represented by the following equation: […]

**Q.** For CN(C)CCCNc1ccnc(Nc2cccc(Cl)c2)n1 [No. 3, N^2-(3-chlorophenyl)-N^4-[3-(dimethylamino)propyl]pyrimidine-2,4-diamine], which IC50 is on record?
**A.** 312 nM

**Q.** CN(C)CC(C)(C)CNc1ccnc(Nc2cccc(C(F)(F)F)c2)n1 [No. 75, N^4-[3-(dimethylamino)-2,2-dimethylpropyl]-N^2-[3-(trifluoromethyl)phenyl]pyrimidine-2,4-diamine] was tested. Which IC50 did it give?
**A.** 4 nM

**Q.** For CN(C)CCCCNc1ccnc(Nc2cccc(Cl)c2)n1 [No. 81, N^2-(3-chlorophenyl)-N^4-[4-(dimethylamino)butyl]pyrimidine-2,4-diamine], which IC50 is on record?
**A.** 0.8 nM

**Q.** For CCN(CC)CCCNc1ccnc(Nc2cccc(Cl)c2)n1 [compound 6], which IC50 is on record?
**A.** 1 nM

**Q.** For CN(C)CCCNc1ccnc(Nc2ccc(Cl)c(Cl)c2)n1 [compound 15], which IC50 is on record?
**A.** 15 nM

**Q.** Cc1ccc(Nc2nccc(NCCCN(C)C)n2)cc1Cl [compound 21] was tested. Which IC50 did it give?
**A.** 3 nM

**Q.** How did the IC50 turn out when CN(C)CCCNc1ccnc(Nc2cccc(Cl)c2F)n1 [compound 25] was run?
**A.** 23 nM

**Q.** For CN(C)CCCNc1ccnc(Nc2ccc(F)c(Cl)c2)n1 [compound 27], which IC50 is on record?
**A.** 8 nM

**Q.** For CN(C)CCCNc1ccnc(Nc2ccc(F)c(F)c2)n1 [compound 33], which IC50 is on record?
**A.** 65 nM

**Q.** With CN(C)CCCNc1ccnc(Nc2cccc(C(F)(F)F)c2)n1 [compound 39] as the molecule, how does the IC50 read?
**A.** 0.5 nM

**Q.** How did the IC50 turn out when CN(C)CCCNc1ccnc(Nc2ccc(Cl)c(C(F)(F)F)c2)n1 [compound 45] was run?
**A.** 3 nM

**Q.** For COc1cccc(Nc2nccc(NCCCN(C)C)n2)c1 [compound 51], which IC50 is on record?
**A.** 14 nM

**Q.** How did the IC50 turn out when Cc1cccc(Nc2nccc(NCCCN(C)C)n2)c1 [compound 55] was run?
**A.** 40 nM

**Q.** With Cc1cccc(Nc2nccc(NCCCN(C)C)n2)c1 [compound 58] as the molecule, how does the IC50 read?
**A.** 93 nM

**Q.** Which IC50 does the source give for CN(C)CCNc1ccnc(Nc2cccc(Cl)c2)n1 [compound 69] here?
**A.** 83 nM

**Q.** CN(C)CCCCNc1ccnc(Nc2cccc(Cl)c2)n1 [compound 81] was tested. Which IC50 did it give?
**A.** 12 nM

**Q.** With CN(C)CCCNc1ccnc(Nc2cccc(-c3ccccc3)c2)n1 [compound 87] as the molecule, how does the IC50 read?
**A.** 0.4 nM

**Q.** For Cc1nc(-c2cccc(Nc3nccc(NCCCN(C)C)n3)c2)cs1 [compound 105], which IC50 is on record?
**A.** 48 nM
